Laboratory results from ChEMBL document CHEMBL2439976, “Discovery of NMS-E973 as novel, selective and potent inhibitor of heat shock protein 90 (Hsp90)” (Bioorg Med Chem, 2013).

What was measured:
in vivo [1] = settings: Balb nu/nu, mouse, iv, 10 mg/kg
in vivo [2] = settings: Balb nu/nu, mouse, iv, 10 mg/kg; remark: listed apart in the source
in vivo [3] = settings: Balb nu/nu, mouse, iv, 10 mg/kg; remark: listed apart in the source
in vivo [4] = settings: Balb nu/nu, mouse, plasma, iv, 10 mg/kg

| half-life (in vivo [1]) [h] | Vd (in vivo [2]) [L/kg] | clearance (in vivo [3]) [mL/min/kg] | AUC(0-inf) (in vivo [4]) [µM·h] | Structure (SMILES) |
| --- | --- | --- | --- | --- |
| 5.46 | 4.94 | 29.4 | 7.6 | CN(C)c1ccc(Oc2cc(O)cc(O)c2-c2cc(C(=O)NC3CCN(C4CCC5(CC4)OCCO5)CC3)no2)cc1 |
| 5.55 | 19.7 | 62.3 | 5.92 | CN1CCC(NC(=O)c2cc(-c3c(O)cc(O)cc3Oc3ccc(N(C)C)cc3)on2)CC1 |
| 5.44 | 18.4 | 64.8 | 4.8 | CC(C)Nc1ccc(Oc2cc(O)cc(O)c2-c2cc(C(=O)NC3CCN(C)CC3)no2)cc1 |
